# Assay results: patent US20090036422A1 (priority 2007, published 2009)
# Where a name gives a salt, the structure may show the parent alone.
# Target: T1, human orexin-2 (hOX2) receptor (Homo sapiens, UniProt O43614)
# T1 construct: expressed in transfected cells
# T1 sequence (O43614 1-444): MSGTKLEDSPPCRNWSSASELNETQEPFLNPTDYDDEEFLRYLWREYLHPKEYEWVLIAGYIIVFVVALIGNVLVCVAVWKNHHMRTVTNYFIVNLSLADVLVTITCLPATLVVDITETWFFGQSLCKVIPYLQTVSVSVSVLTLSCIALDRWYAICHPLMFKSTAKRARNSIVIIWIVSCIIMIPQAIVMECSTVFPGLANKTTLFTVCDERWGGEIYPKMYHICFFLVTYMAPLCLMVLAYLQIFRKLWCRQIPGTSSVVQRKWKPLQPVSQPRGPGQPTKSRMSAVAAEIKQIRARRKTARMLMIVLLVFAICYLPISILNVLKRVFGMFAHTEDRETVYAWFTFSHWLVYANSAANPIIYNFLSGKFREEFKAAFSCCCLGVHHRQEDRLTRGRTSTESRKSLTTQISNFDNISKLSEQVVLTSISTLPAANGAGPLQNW
# Experiment: Intracellular Ca2+ mobilization assay (FLIPR), CHO(dHFr-) cells expressing hOX2, orexin-A at EC80 as agonist
# Assay type: cell-based
# Details: Kb=IC50/(1+[A]/EC50); CHO(dHFr-)-OX2R cells, antagonist applied 25 min before orexin-A EC80
# Method in brief: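 Fluo-4-loaded CHO(dHFr−) cells stably expressing hOX2 were preincubated 25 min at 37 °C with antagonist (11 concentrations, 0.0001–10 μM), then challenged with orexin-A at its daily-determined EC80. Peak fluorescence over basal read by FLIPR; IC50 from Hill fit, Kb via Kb=IC50/(1+[A]/EC50).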
row,Compound,Kb
1,"N[C@H](C(=O)N(CCc1ccc(F)cc1)c1ccc2c(c1)CCO2)c1ccccc1 [Example 239, (S)-2-Amino-N-(2,3-dihydro-benzofuran-5-yl)-N-[2-(4-fluoro-phenyl)-ethyl]-2-phenyl-acetamide hydrochloride]",0.025 µM
2,"N[C@H](C(=O)N(CCc1ccc(F)cc1)c1ccc2c(c1)OCC2)c1ccccc1 [Example 243, (S)-2-Amino-N-(2,3-dihydro-benzofuran-6-yl)-N-[2-(4-fluoro-phenyl)-ethyl]-2-phenyl-acetamide hydrochloride]",0.0604 µM
3,"CCc1ccc(N(CCc2ccc(F)cc2)C(=O)[C@@H](N)c2ccccc2)cc1 [Example 244, (S)-2-Amino-N-(4-ethyl-phenyl)-N-[2-(4-fluoro-phenyl)-ethyl]-2-phenyl-acetamide hydrochloride]",0.049 µM
4,"Cc1ccc(CCN(C(=O)[C@@H](NC(=O)CN)c2ccccc2)c2ccc(C)c(C)c2)cc1 [Example 248, (S)-2-(2-Amino-acetylamino)-N-(3,4-dimethyl-phenyl)-2-phenyl-N-(2-p-tolyl-ethyl)-acetamide]",0.0353 µM
5,"Cc1ccc(CCN(C(=O)[C@@H](NC(=O)[C@@H](N)c2ccccc2)c2ccccc2)c2ccc(C)c(C)c2)cc1 [Example 249, (S)-2-((S)-2-Amino-2-phenyl-acetylamino)-N-(3,4-dimethyl-phenyl)-2-phenyl-N-(2-p-tolyl-ethyl)-acetamide]",0.082 µM
6,"Cc1ccc(CCN(C(=O)[C@@H](NC(=O)[C@H](C)N)c2ccccc2)c2ccc(C)c(C)c2)cc1 [Example 251, (S)-2-Amino-N-{(S)-[(3,4-dimethyl-phenyl)-(2-p-tolyl-ethyl)-carbamoyl]-phenyl-methyl}-propionamide]",0.0102 µM

# Tested on: rat
# Experiment: not given
# Details: intracerebroventricular (icv) administration; cited from earlier work
row,Compound,reduction of total REM sleep
1,"OX-A: ""orexin-A/hypocretin1 (OX-A, 33 amino acids)"", hypothalamic neuropeptide; ""Orexin A ... was used as agonist"" (QPLPDCCRQKTCSCRLYELLHGAGNHAAGILTL; Orexin-A; UniProt O43612 34-66, looked up)",84%
